Source: PubChem BioAssay (NCI)
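Test compounds were applied to cells in 96-well plates for 48 hours at 5 doses. TGI denotes the concentration required for complete inhibition of growth.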

Key:
Assay in all cases: NCI tumour cell line growth inhibition, 48 h
[1] = system: COLO 205 colon
[2] = system: HCT-15 colon
[3] = system: DU-145 prostate
[4] = system: A498 renal
[5] = system: SK-OV-3 ovarian
[6] = system: SNB-19 CNS
[7] = system: NCI-H226 lung
[8] = system: SNB-75 CNS
[9] = system: HCT-116 colon
[10] = system: MDA-MB-231 breast
[11] = system: HCC-2998 colon
[12] = system: IGROV1 ovarian
[13] = system: MCF7 breast
[14] = system: RPMI-8226 leukemia
[15] = system: SK-MEL-5 melanoma

SMILES	TGI [1] [µM]	TGI [2] [µM]	TGI [3] [µM]	TGI [4] [µM]	TGI [5] [µM]	TGI [6] [µM]	TGI [7] [µM]	TGI [8] [µM]	TGI [9] [µM]	TGI [10] [µM]	TGI [11] [µM]	TGI [12] [µM]	TGI [13] [µM]	TGI [14] [µM]	TGI [15] [µM]
OC1C#CCSCC#C/C=C\1 (stereo not drawn)	29.3	> 100	> 100	> 100	> 100	> 100	> 100	> 100	> 100	> 100	> 100	> 100	> 100		
CCOC(=O)NC(Nc1ccc(S(=O)(=O)Nc2nc(C)cc(C)n2)cc1)(C(=O)OCC)C(F)(F)F (stereo not drawn)	> 100	> 100	> 100	> 100	> 100	> 100	> 100	> 100	> 100	> 100	> 100	> 100	> 100	> 100	> 100
Cc1ccc(-n2c(N)c(C#N)c3[nH]nc(N)c3c2=O)cc1	> 100	> 100	> 100	> 100	> 100	> 100	> 100	> 100	> 100	> 100	> 100	> 100	> 100	> 100	> 100
Clc1ccc(C2C3COc4ccccc4C3=NN2c2ccccc2)cc1 (stereo not drawn)	> 100	> 100	> 100	> 100	> 100	> 93.5	> 100	98.9	> 100	> 100	> 100	> 100	> 100	7.32	> 100
Cc1nn(-c2ccccc2)c2c1C(c1ccc(Cl)cc1)NC(=S)N2 (stereo not drawn)	31.2	37.7	> 100	67.1	59.8	> 100	> 100	> 100	> 100	51.2		28.1	> 100	48.7	52.1
COC(=O)C(Cc1c[nH]c2ccccc12)NP(=O)(O)OCC1OC(n2cc(I)c(=O)[nH]c2=O)CC1O (stereo not drawn)	> 100	> 100	> 100	> 100	> 100	> 100	> 100	> 100	> 100	> 100		> 100	> 100	> 100	> 100
Nc1nc(SC/C=C/c2ccccc2)c2[nH]cnc2n1	> 100	> 100	> 100	> 100	> 100	> 100	> 100	> 100	> 100	> 100	> 100	> 100	> 100	> 100	> 100
C[C@H](CCC(=O)O)[C@H]1CC[C@H]2[C@@H]3CC[C@@H]4C[C@H](O)CC[C@]4(C)[C@H]3C[C@H](O)[C@]12C	61.8	> 100	> 100	> 100	78.1	> 100	> 100	> 100	> 100	> 100	> 100	86.7	> 100	57.6	> 100
CC1OC(OC2C(O)COC(OC3C(C)OC(OC4C(OC(=O)[C@]56CCC(C)(C)C[C@@H]5C5=CCC7[C@@]8(C)C[C@H](O)[C@H](OC9OC(CO)C(O)C(O)C9O)[C@@](C)(CO)[C@@H]8CC[C@@]7(C)[C@]5(C)CC6)OCC(O)C4O)C(O)C3OC3OCC(O)(CO)C3O)C2O)C(O)C(O)C1O (stereo partly drawn)	6.37	38.7	30.3	13.6	34.8	29	43	39.6	30.6	30	14.7	31.1	> 67.9	> 100	29.8
COc1ccc(C(OCC2OC(n3cc(C)c(=O)[nH]c3=O)CC2n2cc(Cn3cc(Cl)c(=O)[nH]c3=O)nn2)(c2ccccc2)c2ccccc2)cc1 (stereo not drawn)	> 100	> 100	> 100	> 100	> 100	> 100	> 100	> 100	> 100	> 100	> 100	> 100	> 100	> 100	> 100
CN=C(N=Nc1c(O)[nH]c2ccccc12)SCC(=O)c1ccc(Br)cc1	> 100	> 89.3	30.5	37.2	28.4	> 100	48.4	27.5	19.7	19.8	13.2	> 100	20.4	> 100	> 93.2
COc1ccc(P2(=S)OC(C)(C)C(C)(C)O2)cc1		> 100	> 100			> 100	> 100	> 100	> 100	> 100		> 100	> 100		> 100
O=Cc1[nH]c(=O)[nH]c(=O)c1C(=O)O	> 100	> 100	> 100		> 100	> 100	> 100	> 100	> 100	> 100	> 100	> 100	> 100	> 100	> 100
Cn1cc(NC(=O)Nc2cc(C(=O)Nc3cc(C(=O)Nc4ccc(S(=O)(=O)O)c5cc(S(=O)(=O)O)ccc45)n(C)c3)n(C)c2)cc1C(=O)Nc1cc(C(=O)Nc2ccc(S(=O)(=O)O)c3cc(S(=O)(=O)O)ccc23)n(C)c1	> 100	> 100	> 100		> 100	> 100	> 100	> 100	> 100	> 100	> 100	> 100	> 100	> 100	> 100
CN(C)C1(N(C)C)Oc2c(c(=O)n(C)c(=O)n2C)C(c2ccccc2)C1(F)F (stereo not drawn)	> 100	> 100	> 100	> 100	> 100	> 100	> 100	> 100	> 100	> 100	> 100		> 100	> 100	> 100
CCCCNC(=S)Nc1nc(C(=O)NNC(=S)Nc2ccccc2)cs1	> 100	> 100	> 100	68	> 100	> 100	> 100	91.1	> 100	87.2	> 100		> 100	> 100	> 100

SMILES	TGI [1] [µM]	TGI [2] [µM]	TGI [3] [µM]	TGI [4] [µM]	TGI [5] [µM]	TGI [6] [µM]	TGI [7] [µM]	TGI [8] [µM]	TGI [9] [µM]	TGI [10] [µM]	TGI [11] [µM]	TGI [12] [µM]	TGI [13] [µM]	TGI [14] [µM]	TGI [15] [µM]
C/C=C(/C)C(=O)O[C@@H]1CCN2CC[C@H](COC(=O)/C(=C/C)CO)C12 (stereo partly drawn)	42.7	> 100	> 100		> 100	> 100	> 100	> 100	> 100	> 100	44	> 100	> 100	> 87.8	> 62
N#Cc1c(-c2ccc(Cl)cc2Cl)nc2[nH][nH]c(=S)n2c1=O	> 100	> 100	> 100	> 100	> 100	> 100	> 100		> 100	> 100	> 100	> 100	> 100	> 100	> 100
CSc1ncnc2c1ncn2CCC(=O)OC(C)(C)C	> 100		> 100	> 100	> 100	> 100	> 100	> 100	> 100	> 100	> 100	> 100	> 100	> 100	> 100
O=C1/C(=C/c2ccccc2S)N=C(c2ccccc2)N1c1nc2c(Cl)cc(Cl)cc2s1	54.8	> 100	> 100	40.7	66	84.5		64.8	36.5	80.9	54.7	67.2	58.1	54.1	36
Cc1nc2c(nc1C)-c1[nH]c3c(c1C(=O)C2=O)CCCC3=O	7.93	8.08	23.5	21.5	6.87	5.58	3.04	3.31		3.4	7.71	11.5	2.98	3.22	3.02
N#Cc1c(N)nc2n[nH]c(N)c2c1-c1ccc(Cl)cc1	> 100	> 72.6	> 71.8	3.14	7.33	> 59.9	> 100		> 100	10.4	> 64.7	7.39	19	> 100	> 81.1
O=C(Nc1nc(C23CC4CC(CC(C4)C2)C3)cs1)c1cc2ccc(O)cc2oc1=O	50.4	47.6	> 100	28.6		80.6	49		25.6	48.7	43.3	33	61.3	32.6	39
CC1CCC(C(C)C)C(OC(=O)NCn2cc(-c3ccccc3)nn2)C1 (stereo not drawn)	> 100	> 100	> 100			> 100	> 100	86	> 100	> 100	> 100	> 100	> 100	> 100	> 100
S=C(S)NCNC(=S)S.[Zn+2]	> 100	> 100	> 100	> 100	> 100	> 100		> 100	> 100	> 100	> 100	> 100	> 100	> 100	> 100
COc1cc2c(C)cc(O)cc2c2cc(O)c(C)cc12	19.6	17.9	20.9	21.3	23.8	21.4	28.2		20.7	19.2	24.4	29	20.5	6.64	20.3
CC(C)=CC[C@]12CCN[C@H]1N(S(=O)(=O)c1ccccc1)c1ccccc12	41	32.8	> 100		38.9	51.2	36.7	44.5	27.9	58.5	32.1	30.8	39.8	45.9	28.1
CCOC(=O)CN1C(=O)c2ccc(NC(=O)C(=O)O)cc2S1(=O)=O	> 100	> 100	> 100	> 100	> 100	> 100	> 100		> 100	> 100	> 100	> 100	> 100	> 100	> 100
COc1ccc(/C=C2\N=C(SC)N(CN3CCOCC3)C2=O)cc1	> 100	> 100	> 100	> 100	> 100	> 100	> 100	> 100	> 100	> 100		> 100	> 100	> 100	> 100
CC(=O)Oc1ccc2c(C)cc(=O)oc2c1OC(C)=O	> 100	81.6	> 100	76.5	> 100	> 100	> 100	> 100	> 100	> 100		92.9	> 100	89.9	> 100
COc1ccc(S(=O)(=O)c2nnc(S(=O)(=O)Cc3ccccc3)s2)cc1	28.5	50.5	33	39.9	44.6	36.8		31.8	38.1	62.3			60.6	> 100	34.2
